One may read the EC50 as the concentration needed to bring the measured effect to its halfway point.

Consider 50 compounds from patent US9212209B2, “Screening methods for spinal muscular atrophy” (Indiana University Research and Technology Corporation, priority 2012, dated 2015).

This assay relates to SMN2-luciferase reporter. The experiment in a line: SMN2-luciferase reporter assay (clonal HEK-293 SMN2-luc cells). It counts as cell-based, human. The arrangement: % activation: concentration or dose not given beside the values. Conditions: for Active / % activation: reporter assay; for Active / EC50 / Emax: Table 6; for EC50 / Emax: Homo sapiens, HEK293, reporter assay; for EC50: read-out: Ec50; for Emax: read-out: Max % Activity; for % activation: Table 5. As for the experimental part:
The reporter cell lines were plated at 50,000 cells per well in 96-well plates and incubated overnight. Compounds were added to each well and incubated at 37° C. overnight. The final DMSO concentration was 0.1%. Luciferase activity was assayed using either STEADYGLO (PROMEGA E2510) or DUALGLO (PROMEGA E2920) luciferase using the WALLAC ENVISION multilabel reader. For detailed assay conditions see Table 2A. All data points were transformed from CPS to percent increase over basal expression in the treated control wells (DMSO or H2O as appropriate).
Plates were sealed with porous paper tape and incubated for 24 hours. […] For comparison, data points were transformed from CPS to percent activation over basal expression in the DMSO treated control wells.
For comparison, all data points are expressed as percent increase over basal luciferase expression in the control cells.
For orientation: A reporter such as luciferase makes a cellular process visible.

For `CC1CC(C(=O)Nc2cnccn2)=NO1` (stereo not drawn) [CAL-2], the Active entry is recorded as “No”. The same measure, in the same setting: as for `COc1cc2c(c(OC)c1OC)C(c1ccc3ccccc3c1)CC(=O)N2` (stereo not drawn) [LDN-212357], the entry is “No”.

As for `CC(C)c1cc(NC(=O)c2ccc(F)c(Cl)c2)on1` [LDN-211860], the half-maximal effective concentration (EC50) came to 2.5 µM, the Emax was 125% and the Active entry is reported as “Yes”. On to `COc1cc2c(c(OC)c1OCCN1CCOCC1)C(c1cc(Cl)ccc1F)CC(=O)N2` (stereo not drawn) [LDN-213770], for which the Active entry is reported as “No”.

Turning to `N#Cc1ccsc1NC(=O)CCc1ccccc1` [Compound 110425], the “% activation” value is 93%. For `COc1cc2c(c(OC)c1OC)C(c1ccc(Cl)cc1Cl)CC(=O)N2` (stereo not drawn) [LDN-76074], the Active result is given as “No/Weak”. In the case of `COC1=C2C(=CC(OC)C1OC)NC(=O)CC2c1cc(NC(=O)c2ccccc2)ccc1F` (stereo not drawn) [LDN-212359], the Active result is reported as “No”. With `O=C(Nc1ccc(Cl)cc1)C1=NOC(c2ccccc2)C1` (stereo not drawn) [CAL-7], the EC50 turned out to be 10 µM, the Emax was 134% and the Active result is “Yes”.

Consider `O=C(Nc1ccc(F)c(Cl)c1)c1cc(Cc2ccccc2)on1` [LDN-211855], for which the EC50 was 1.5 µM, the Emax turned out to be 125% and the Active entry is recorded as “Yes”. Regarding `O=C(Nc1cc(C2(O)CCC2)ccn1)c1ccc(F)c(Cl)c1` [LDN-212256], the EC50 worked out at 0.4 µM, the Emax turned out to be 114% and the Active entry is “Yes”.

Consider `CC(C)(C)c1coc(NC(=O)c2ccc(F)c(Cl)c2)n1` [LDN-211992], for which the EC50 amounted to 0.15 µM, the Emax came out at 100% and the Active entry is given as “Yes”. Take `COc1cc(Br)c(C2CC(=O)Nc3cc(OC)c(OC)c(OC)c32)cc1OC` (stereo not drawn) [CAL-51]: the Active result was “No”. Take `O=C1CCc2cc(C(=O)CSc3ccccc3)ccc2N1` [Compound 98541]: the “% activation” value is recorded as 124%.

Take `COc1cc2c(c(OC)c1OC)C(c1cc(F)ccc1F)CC(=O)N2` (stereo not drawn) [LDN-212353]: the Active entry is “No/Weak”. With `CC1CC(C(=O)NC2CCCc3ccccc32)=NO1` (stereo not drawn) [CAL-1], the Active result is given as “No”. Take `CC(C)(C)c1nnc(NC(=O)c2ccc(F)c(Cl)c2)s1` [LDN-211981]: the concentration for a half-maximal effect (EC50) stood at 5.9 µM, the Emax came to 100% and the Active result is “Yes”. On to `COc1cc2c(c(OC)c1OC)C(c1cc(Cl)ccc1F)CC(=O)N2` (stereo not drawn) [LDN-213769], for which the Active entry is “No”. `COc1cc2c(c(OC)c1OC)C(c1cc(Cl)ccc1F)C(C)C(=O)N2` (stereo not drawn) [LDN-213773]: the Active entry is reported as “No”. Still for that read-out and setting: then `COC1=CC2NC(=O)CC(c3cc(C(N)O)ccc3F)C2C(OC)=C1OC` (stereo not drawn) [LDN-212358], with “No”. With `COc1cc2c(c(OC)c1OC)C(c1cccc3ccccc13)CC(=O)N2` (stereo not drawn) [LDN-212356], the half-maximal effective concentration (EC50) came out at 43 µM, the Emax came to 150% and the Active entry is recorded as “Yes”. With `CC(C)(C)c1cc(NC(=O)c2cnc3ccccc3c2)no1` [LDN-211906], the EC50 turned out to be 0.8 µM, the Emax was 250% and the Active result is “Yes”. Take `O=C(Nc1nc(-c2ccccc2)co1)c1ccc(F)c(Cl)c1` [LDN-212011]: the Active result is “No”. Take `COc1ccc(NC(=O)C2=NOC(C)C2)cc1` (stereo not drawn) [CAL-4]: the EC50 was found to be 8 µM, the Emax amounted to 211% and the Active result is “Yes”.

As for `CC(C)c1cc(C(=O)Nc2cccc3ccccc23)no1` [LDN-211827], the Active result is given as “No/Weak”.

As to `CC(C)c1cc(C(=O)Nc2ccc(F)c(Cl)c2)n(C)n1` [LDN-211857], the Active entry is “No”. Regarding `O=C(Nc1ccc(F)c(Cl)c1)c1noc(C2CC2)c1[N+](=O)[O-]` [CAL-38], the Active result was “No”. Turning to `COc1cc2c(c(OC)c1)C(c1cc3c(cc1Br)OCO3)CC(=O)N2` (stereo not drawn) [CAL-52], the Active result was “No”.

Regarding `COc1cc2c(c(OC)c1OC)C(c1ccccc1Cl)CC(=O)N2` (stereo not drawn) [CAL-21], the 50% effective concentration (EC50) is 251 µM, the Emax was found to be 14% and the Active entry is on record as “Yes”. `COc1ccc(NC(=O)c2cc(C(C)C)on2)cc1OC` [CAL-26]: the EC50 stood at 94 µM, the Emax came out at 160% and the Active entry is “Yes”.

In the case of `CC(C)C1CC(C(=O)Nc2ccc(F)c(Cl)c2)=NO1` (stereo not drawn) [LDN-211862], the Active entry was “Nonspecific”. For `COc1ccc(Cl)cc1NC(=O)c1cc(C(C)C)on1` [CAL-29], the Active result is listed as “No”.

In the case of `CC(C)c1cc(C(=O)NCc2ccc(F)c(Cl)c2)no1` [LDN-211834], the Active entry is recorded as “No”. Regarding `CC(C)(C)c1c[nH]c(NC(=O)c2ccc(F)c(Cl)c2)n1` [LDN-212012], the Active result is reported as “No”. On the same count and under the same terms, then `CC(C)c1cc(C(=O)Nc2ccc(F)c(Cl)c2)n[nH]1` [LDN-211830], with “No”; and `O=C(Nc1nc(-c2ccccc2)cs1)c1ccc(F)c(Cl)c1` [LDN-211983], with “No”; and `COc1ccc2c(c1OC)C(c1cc(Br)ccc1F)CC(=O)N2` (stereo not drawn) [CAL-23], with “No”. As to `O=C(Nc1ccc(F)c(Cl)c1)c1cc(C2CCCC2)on1` [LDN-211828], the EC50 was 20 µM, the Emax stood at 100% and the Active entry is “Yes”. Regarding `CN(C(=O)c1cc(C2CC2)on1)c1ccccc1` [CAL-37], the concentration giving a half-maximal response (EC50) stood at 30 µM, the Emax turned out to be 143% and the Active result was “Yes”. Take `Cc1ccc(C(=O)Nc2cc(C(C)(C)C)on2)cc1C` [LDN-211912]: the EC50 stood at 1.1 µM, the Emax was 150% and the Active entry was “Yes”. Take `CC(C)(C)c1cc(NC(=O)c2ccc3ccccc3c2)no1` [LDN-211854]: the EC50 is 0.5 µM, the Emax was found to be 200% and the Active entry is “Yes”. Take `CC(C)(O)c1cnc(NC(=O)c2ccc(F)c(Cl)c2)s1` [LDN-212255]: the EC50 turned out to be 0.4 µM, the Emax came out at 117% and the Active result was “Yes”. For `O=C(Nc1ccc(F)c(Cl)c1)c1cc(C2CCCCC2)on1` [LDN-211829], the Active entry is on record as “No/Weak”. `CC(C)(C)c1cc(NC(=O)c2ccc(F)c(Cl)c2)no1` [LDN-211831]: the EC50 is 3 µM, the Emax stood at 150% and the Active entry is given as “Yes”. As to `CC(C)(C)c1cc(NC(=O)c2cc3ccccc3o2)no1` [LDN-211909], the Active result is “No/Weak”. Same read-out and setting: then `COc1cc2c(c(OC)c1OC)C(c1ccc(Cl)cn1)CC(=O)N2` (stereo not drawn) [LDN-212392], with “No”. With `CC(C)c1cc(C(=O)Nc2ccc3ccccc3c2)no1` [LDN-211826], the concentration for a half-maximal effect (EC50) worked out at 1.1 µM, the Emax was 150% and the Active entry is recorded as “Yes”. On to `Cn1c(C(=O)Nc2cc(C(C)(C)C)on2)cc2ccccc21` [LDN-211910], for which the concentration giving a half-maximal response (EC50) was determined as 0.7 µM, the Emax is 100% and the Active entry is on record as “Yes”.

With `CC(C)(C)c1cc(NS(=O)(=O)c2ccc3ccccc3c2)no1` [LDN-211859], the Active entry is listed as “No”. `CC1CC(C(=O)Nc2ccc(F)c(Cl)c2)=NO1` (stereo not drawn) [CAL-8]: the concentration giving a half-maximal response (EC50) came to 10 µM, the Emax worked out at 120% and the Active entry is “Weak”. Take `Cc1c(C(=O)NCCC(C)C)oc2ccc3c(c12)C(O)CC(C)(C)O3` (stereo not drawn) [Compound 79199]: the “% activation” value was found to be 102%.
